In patent publication US8822430B2 (Gilead Sciences, Inc., priority 2009, dated 2014):

System: HCV 1b RLuc cells (dicistronic genotype 1b Con1 replicon)
Assay: Renilla luciferase (RLuc)-based HCV replicon reporter assay
Type: cell-based, HCV genotype 1b
Details: Hepatitis C virus, 72 h, HCV 1b RLuc replicon, 72 hours; read-out: Activity (antiviral potency [EC50])
How it was run: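 EC50 values were calculated by non-linear regression of Renilla luciferase signal from lysed cells after 72 h of compound exposure. Cells harboured a genotype 1b Con1 dicistronic replicon encoding RLuc. Compounds were serially diluted in DMSO from 10 mM stocks into culture media.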

SMILES	EC50 [pM]
COC(=O)N[C@H](C(=O)N1CCC[C@H]1c1nc2ccc(C#CC#Cc3ccc4nc([C@@H]5CCCN5C(=O)[C@@H](NC(=O)OC)C(C)C)[nH]c4c3)cc2[nH]1)C(C)C	26.1
COC(=O)N[C@H](C(=O)N1CCC[C@H]1c1ncc(-c2ccc(C#Cc3ccc4nc([C@@H]5CCCN5C(=O)[C@@H](NC(=O)OC)C(C)C)[nH]c4c3)cc2)[nH]1)C(C)C	11.1
COC(=O)NC(C(=O)N1CCC[C@H]1c1ncc(-c2cc3sc(-c4ccc5nc([C@@H]6CCCN6C(=O)[C@@H](NC(=O)OC)C(C)C)[nH]c5c4)cc3s2)[nH]1)C(C)C (stereo partly drawn)	22.9
COC(=O)N[C@H](C(=O)N1CCC[C@H]1c1ncc(-c2ccc(-c3cc4ccc(-c5cnc([C@@H]6CCCN6C(=O)[C@@H](NC(=O)OC)C(C)C)[nH]5)cc4s3)cc2)[nH]1)C(C)C	9.3
COC(=O)N[C@H](C(=O)N1CCC[C@H]1c1ncc(-c2ccc3cc(-c4ccc(-c5cnc([C@@H]6CCCN6C(=O)[C@@H](OC(=O)N(C)C)c6ccccc6)[nH]5)cc4)ccc3c2)[nH]1)C(C)C	79.4
COC(=O)N[C@@H](CCC(F)(F)F)C(=O)N1CCC[C@H]1c1ncc(-c2ccc(-c3ccc(-c4cnc([C@@H]5CCCN5C(=O)[C@@H](NC(=O)OC)C(C)C)[nH]4)cc3)cc2)[nH]1	40
COC(=O)N[C@H](C(=O)N1CCC[C@H]1c1ncc(-c2ccc3cc(-c4ccc(-c5cnc([C@@H]6C[C@H](CNS(C)(=O)=O)CN6C(=O)[C@@H](NC(=O)OC)C(C)C)[nH]5)cc4)ccc3c2)[nH]1)C(C)C	120
COC(=O)N[C@H](C(=O)N1CCC[C@H]1c1ncc(-c2ccc(C#Cc3ccc(-c4cnc([C@@H]5CN(CC(F)(F)F)CN5C(=O)[C@@H](NC(=O)OC)C(C)C)[nH]4)cc3)cc2)[nH]1)C(C)C	30.4
COC(=O)N[C@@H](C)C(=O)N1CCC[C@H]1c1ncc(-c2ccc3c(c2)sc2cc(-c4cnc([C@@H]5[C@H]6CC[C@H](C6)N5C(=O)[C@H](C)NC(=O)OC)[nH]4)ccc23)[nH]1	18.5
COC(=O)N[C@H](C(=O)N1CCC[C@H]1c1ncc(-c2ccc(-c3ccc4cc(-c5cnc([C@@H]6CCCN6C(=O)[C@@H](NC(=O)OC)C(C)C)[nH]5)ccc4c3)cc2)[nH]1)C(C)C	4.7
COC(=O)N[C@H](C(=O)N1CCC[C@H]1c1ncc(-c2ccc3c(c2)COc2cc(-c4ccc5nc([C@@H]6[C@H]7CC[C@H](C7)N6C(=O)[C@@H](NC(=O)OC)C(C)C)[nH]c5c4)ccc2-3)[nH]1)C(C)C	7
COC(=O)N[C@H](C(=O)N1CCC[C@H]1c1ncc(-c2ccc(-c3ccc(-c4cnc([C@@H]5[C@H]6CC[C@H](C6)N5C(=O)[C@@H](NC(=O)OC)C(C)C)[nH]4)cc3)cc2)[nH]1)C(C)C	7.3
COC(=O)N[C@H](C(=O)N1CCC[C@H]1c1ncc(-c2ccc3c(c2)sc2cc(-c4ccc5nc([C@@H]6[C@H]7CC[C@H](C7)N6C(=O)[C@@H](NC(=O)OC)C(C)C)[nH]c5c4)ccc23)[nH]1)C(C)C	3.7
COC(=O)N[C@H](C(=O)N1CCC[C@H]1c1ncc(-c2ccc3c(c2)C(F)(F)c2cc(-c4ccc5nc([C@@H]6[C@H]7CC[C@H](C7)N6C(=O)[C@@H](NC(=O)OC)C(C)C)[nH]c5c4)ccc2-3)[nH]1)C(C)C	2.9
COC(=O)N[C@H](C(=O)N1CCC[C@H]1c1nc2ccc(-c3ccc(-c4ccc5nc([C@@H]6CCCN6C(=O)[C@@H](NC(=O)OC)C(C)C)[nH]c5c4)cc3)cc2[nH]1)C(C)C	9.9
COC[C@H]1C[C@@H](c2ncc(-c3ccc(-c4ccc5cc(-c6cnc([C@@H]7CC8(CC8)CN7C(=O)[C@@H](NC(=O)OC)C(C)C)[nH]6)ccc5c4)cc3)[nH]2)N(C(=O)[C@@H](NC(=O)OC)C(C)C)C1	7.3
COC(=O)N[C@H](C(=O)N1CCC[C@H]1c1ncc(-c2ccc(-c3ccc(-c4ccc5nc([C@@H]6CCCN6C(=O)[C@@H](NC(=O)OC)C(C)C)[nH]c5c4)cc3)cc2)[nH]1)C(C)C	5.4
COC(=O)N[C@H](C(=O)N1CC2(CC2)C[C@H]1c1ncc(-c2ccc3cc(-c4ccc(-c5cnc([C@@H]6CCCN6C(=O)[C@@H](NC(=O)OC)C(C)OC)[nH]5)cc4)ccc3c2)[nH]1)C(C)C (stereo partly drawn)	7.4
